{
  "source": "paper PMC10531055",
  "about": "“Molecular Mechanism of Mutational Disruption of DCLK1 Autoinhibition Provides a Rationale for Inhibitor Screening” (International Journal of Molecular Sciences, 2023)",
  "target": "T1, DCLK1 (Doublecortin-like kinase 1) (Homo sapiens, UniProt O15075)",
  "T1 construct": "kinase domain (KD)",
  "T1 sequence (O15075 390-647 limits assumed)": "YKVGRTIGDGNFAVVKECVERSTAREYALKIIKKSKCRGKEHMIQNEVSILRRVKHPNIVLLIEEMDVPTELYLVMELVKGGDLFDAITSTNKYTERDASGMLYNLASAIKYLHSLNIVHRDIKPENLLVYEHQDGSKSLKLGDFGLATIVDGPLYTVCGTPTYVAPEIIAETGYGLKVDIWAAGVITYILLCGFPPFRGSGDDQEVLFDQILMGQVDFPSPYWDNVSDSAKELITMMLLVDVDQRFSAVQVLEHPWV",
  "assay": "SPR (Biacore X-100, kinase domain immobilized on CM5 chip)",
  "format": "binding",
  "data": [
    {"compound": "CCN1CCN(Cc2ccc(Nc3ncc(F)c(-c4cc(F)c5nc(C)n(C(C)C)c5c4)n3)nc2)CC1", "note": "[6ZV, Abemaciclib]", "values": [
      {"measurement": "Kd", "value": 1920, "unit": "nM"}
    ]}
  ]
}
